Measurements reported in EP4603105A1, “PHARMACEUTICAL COMPOSITION CONTAINING CYCLIC COMPOUND HAVING SELECTIVE KRAS INHIBITORY EFFECT AGAINST HRAS AND NRAS” (CHUGAI SEIYAKU KABUSHIKI KAISHA, priority 2022, dated 2024).
*1 amine or outer side, *2 acyl side, *3 side chain or, on linkers, in order; H or OH if unused. Where a SMILES comes first, the peptide text is derived from it. Bridges are numbered along the chain shown (N, C = ends). [ ]: non-standard residue; d: D form. The star is where a group is joined. hPhe(3-Cl-4-CF3) = N[C@@H](CCc1ccc(C(F)(F)F)c(Cl)c1)C(=O)O; X29 = C#CCN([C@@H](Cc1ccc(C(F)(F)F)cc1)C(=O)[*:2])[*:1]; NPrPhe(4-CF3) = CCCN[C@@H](Cc1ccc(C(F)(F)F)cc1)C(=O)O; Pro(4-spirocPr) = O=C(O)[C@@H]1CC2(CC2)CN1; NMeGly(cPent) = CN[C@H](C(=O)O)C1CCCC1; NMeD = CN[C@@H](CC(=O)O)C(=O)O; NMeL = CN[C@@H](CC(C)C)C(=O)O; Morpholide = C1CN(*)CCO1; NMeA = CN[C@@H](C)C(=O)O; Ac5c = NC1(C(=O)O)CCCC1; Aze = O=C(O)[C@@H]1CCN1; Ac4c = NC1(C(=O)O)CCC1; NEtG = CCNCC(=O)O; Sar = CNCC(=O)O

Tests used:
HRAS wild-type protein = HRAS wild-type protein (Homo sapiens, UniProt P01112); test: Binding to HRAS by surface plasmon resonance (SPR), KD and KD ratio to KRAS
How it was run: (§1)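 SPR, 30°C: Avi-biotin RAS·GDP captured via Biotin CAPture (~100–300 RU); running buffer HBS pH 7.4, 1 mM DTT, 10 mM MgCl2, 0.01% Tween 20, 10 µM GDP, 4% DMSO. Single-cycle kinetics, 100 µL/min, 75 s injections; 1:1 model → KD.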

[1] = tested on: human lung cancer strain NCI-H441; type: cell-based
How it was run: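 Proliferation was scored by […] measured after the reagent was added to cultures kept at 37°C in 5% carbon dioxide.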

[2] = biological target: GDP-bound NRAS wild-type protein (Homo sapiens, UniProt P01111); test: Binding to NRAS by surface plasmon resonance (SPR), KD and KD ratio to KRAS
How it was run: as §1

[3] = ratio of KD for HRAS wild-type protein to KD for KRAS
[4] = ratio of KD for GDP-bound NRAS wild-type protein to KD for KRAS

Chain of HRAS wild-type protein (P01112 whole entry): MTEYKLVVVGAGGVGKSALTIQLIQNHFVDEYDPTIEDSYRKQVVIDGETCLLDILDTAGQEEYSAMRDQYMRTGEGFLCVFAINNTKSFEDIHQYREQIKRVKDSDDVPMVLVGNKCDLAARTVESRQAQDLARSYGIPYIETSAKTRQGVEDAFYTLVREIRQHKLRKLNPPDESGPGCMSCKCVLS
Chain of GDP-bound NRAS wild-type protein (P01111 whole entry): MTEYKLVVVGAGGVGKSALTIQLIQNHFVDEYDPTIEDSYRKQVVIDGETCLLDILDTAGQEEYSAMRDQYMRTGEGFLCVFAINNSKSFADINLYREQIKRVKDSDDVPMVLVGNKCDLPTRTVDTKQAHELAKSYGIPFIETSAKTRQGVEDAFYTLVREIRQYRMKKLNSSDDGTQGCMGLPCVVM

Structure (SMILES) | HRAS /KRAS (HRAS wild-type protein; [3]) | IC50 [1] [nM] | NRAS /KRAS [2, 4] | HRAS /KRAS (HRAS wild-type protein; ratio of the KD value with respect to HRAS wild-type protein to the KD value with respect to KRAS) | NRAS /KRAS ([2]; ratio of the KD value with respect to GDP-bound NRAS wild-type protein to the KD value with respect to KRAS)
C#CCN1C(=O)[C@@H]2CCN2C(=O)[C@H](C)N(C)C(=O)[C@H]([C@@H](C)CC)NC(=O)[C@H](CC(C)C)N(C)C(=O)C[C@@H](C(=O)N2CCOCC2)N(C)C(=O)[C@H](C2CCCC2)N(C)C(=O)C2(CCCC2)NC(=O)[C@@H]2CCCN2C(=O)[C@H](CCc2ccc(C(F)(F)F)c(Cl)c2)NC(=O)CN(C)C(=O)[C@@H]1Cc1ccc(C(F)(F)F)cc1 [PP0116] ([NMeL]I[NMeA][Aze][X29][Sar][hPhe(3-Cl-4-CF3)]P[Ac5c][NMeGly(cPent)][NMeD]-Morpholide; lactam N-11) | C (A compound having a KD ratio of 0.1 or more and less than 3 is denoted as C) | 6.8 | C (A compound having a KD ratio of 0.1 or more and less than 3 is denoted as C) |  | 
CCO[C@@H]1C[C@H]2C(=O)NC3(CC(F)(F)C3)C(=O)N(C)[C@@H](C3CCCC3)C(=O)N(C)[C@H](C(=O)N3CCOCC3)CC(=O)N(C)[C@@H](CC(C)C)C(=O)N[C@@H]([C@@H](C)CC)C(=O)N(C)CC(=O)N(C)[C@H]3C[C@H]4C[C@H]4CN(C3=O)[C@@H](Cc3ccc(C(F)(F)F)cc3)C(=O)N(C)CC(=O)N[C@@H](CCc3cc(F)c(C(F)(F)F)c(F)c3)C(=O)N2C1 [PP0831] | C (A compound having a KD ratio of 0.1 or more and less than 3 is denoted as C) | 3.7 | C (A compound having a KD ratio of 0.1 or more and less than 3 is denoted as C) |  | 
CCO[C@@H]1C[C@H]2C(=O)NC3(CCC3)C(=O)N(C)[C@@H](C3CCCC3)C(=O)N(C)[C@H](C(=O)N(C)C)CC(=O)N(C)[C@@H](CC(C)(C)C)C(=O)N[C@@H]([C@@H](C)CC)C(=O)N(C)CC(=O)N(C)[C@H]3C/C=C\CCN(C3=O)[C@@H](Cc3ccc(C(F)(F)F)cc3)C(=O)N(C)CC(=O)N[C@@H](CCc3cc(F)c(C(F)(F)F)c(F)c3)C(=O)N2C1 [PP1117] | A (a compound having 10 or more and less than 20 is denoted as A) | 16.5 | A (a compound having 10 or more and less than 20 is denoted as A) |  | 
CCCN(C)C(=O)[C@@H]1CC(=O)N(C)[C@@H](CC(C)C)C(=O)N[C@@H]([C@@H](C)OC)C(=O)N(C)CC(=O)N(C)[C@H]2C/C=C\CCN(C2=O)[C@@H](Cc2ccc(C(F)(F)F)cc2)C(=O)N(C)CC(=O)N[C@@H](CCc2cc(F)c(C(F)(F)F)c(F)c2)C(=O)N2C[C@H](OCC)C[C@H]2C(=O)NC2(CC(C)(C)C2)C(=O)N(C)[C@@H](C2CCCC2)C(=O)N1C [PP1917] |  | 22.5 |  | A (a compound having 10 or more and less than 20 is denoted as A) | A (a compound having 10 or more and less than 20 is denoted as A)
CCCN1C(=O)CN(C)C(=O)CN(C)C(=O)[C@H]([C@@H](C)CC)NC(=O)[C@H](CC(C)C)N(C)C(=O)C[C@@H](C(=O)N2CCOCC2)N(C)C(=O)[C@H](C2CCCC2)N(C)C(=O)C2(CCC2)NC(=O)[C@@H]2CCCN2C(=O)[C@H](CCc2ccc(C(F)(F)F)c(Cl)c2)NC(=O)CN(C)C(=O)[C@@H]1Cc1ccc(C(F)(F)F)cc1 [PP0197] ([NMeL]I[Sar][Sar][NPrPhe(4-CF3)][Sar][hPhe(3-Cl-4-CF3)]P[Ac4c][NMeGly(cPent)][NMeD]-Morpholide; lactam N-11) | C (A compound having a KD ratio of 0.1 or more and less than 3 is denoted as C) | 3.6 | B (a compound having 3 or more and less than 10 is denoted as B) |  | 
CCCN1C(=O)CN(C)C(=O)CN(CC)C(=O)[C@H]([C@@H](C)CC)NC(=O)[C@H](CC(C)C)N(C)C(=O)C[C@@H](C(=O)N2CCOCC2)N(C)C(=O)[C@H](C2CCCC2)N(C)C(=O)C2(CCCC2)NC(=O)[C@@H]2CC3(CC3)CN2C(=O)[C@H](CCc2ccc(C(F)(F)F)c(Cl)c2)NC(=O)CN(C)C(=O)[C@@H]1Cc1ccc(C(F)(F)F)cc1 [PP0295] ([NMeL]I[NEtG][Sar][NPrPhe(4-CF3)][Sar][hPhe(3-Cl-4-CF3)][Pro(4-spirocPr)][Ac5c][NMeGly(cPent)][NMeD]-Morpholide; lactam N-11) | C (A compound having a KD ratio of 0.1 or more and less than 3 is denoted as C) | 33.2 | B (a compound having 3 or more and less than 10 is denoted as B) |  | 
